Active and inactive are the calls of the source. No cut-off for these calls is given here.
What was measured:
Platelet [1] = test: Inhibition of ADP-induced platelet aggregation in human platelet-rich plasma at 1 mM by turbidimetric method; assay type: functional; design: Activity: scale not given: the % may be the effect or the level left
Platelet [2] = test: Inhibition of collagen-induced platelet aggregation in human platelet-rich plasma at 1 mM by turbidimetric method; assay type: functional; design: Activity: scale not given: the % may be the effect or the level left
Micrococcus luteus = test: Antimicrobial activity against Micrococcus luteus ATCC 9341 at 25 ug; assay type: functional, organism-based
Platelet [3] = test: Inhibition of collagen-induced platelet aggregation in human platelet-rich plasma assessed as increase in lag time at 1 mM by turbidimetric method; assay type: functional; design: scale not given: the % may be the effect or the level left
Penicillium oxalicum = test: Antimicrobial activity against Penicillium oxalicum CBS 219.30 at 25 ug; assay type: functional, organism-based
Bacillus subtilis = test: Antimicrobial activity against Bacillus subtilis ATCC 6633 at 25 ug; assay type: functional, organism-based
Escherichia coli = test: Antimicrobial activity against Escherichia coli ATCC 25922 at 25 ug; assay type: functional, organism-based
Platelet [4] = test: Inhibition of epinephrine-induced platelet aggregation in human platelet-rich plasma at 1 mM by turbidimetric method; assay type: functional; design: scale not given: the % may be the effect or the level left

Compound | Activity (Platelet [1]) | Activity (Platelet [2]) | Activity (Micrococcus luteus) | Activity (Platelet [3]) | Activity (Penicillium oxalicum) | Activity (Bacillus subtilis) | Activity (Escherichia coli) | Activity (Platelet [4]) | IC50 (Platelet [1]; Homo sapiens, Platelet, Plasma) | IC50 (Platelet [2]; Homo sapiens, Platelet, Plasma)
C=CC[S+]([O-])C[C@H](NC[C@@]1(O)OC[C@@H](O)[C@@H](O)[C@@H]1O)C(=O)O (some centres not stated) | 39.2% | 82% | inactive | 50% | inactive | inactive | inactive | 40.2% |  | 
C/C=C/[S+]([O-])C[C@H](N)C(=O)O (some centres not stated) |  |  | inactive |  | inactive | inactive | inactive |  |  | 
C[S+]([O-])C[C@H](N)C(=O)O (some centres not stated) |  |  | inactive |  | inactive | inactive | inactive |  |  | 
C=CC[S+]([O-])C[C@H](N)C(=O)O (some centres not stated) [ALLIIN] |  |  | inactive |  | inactive | inactive | inactive |  | 60 µM | 60 µM

From ChEMBL document CHEMBL1148165, “A novel amino acid glycoside and three amino acids from Allium sativum” (J Nat Prod, 1993)
